Experimental data reported in paper PMC9920246, “Entinostat-Bortezomib Hybrids against Multiple Myeloma” (Molecules, 2023).
Like-named read-outs stand apart in the source and are kept apart here.

Assays:
26S proteasome = target: T1, 26S proteasome (Homo sapiens, UniProt P28074); assay: Proteasome inhibitory activity (Suc-LLVY-amc) in RPMI 8226 cell lysate; format: biochemical
T1 sequence (P28074 60-263): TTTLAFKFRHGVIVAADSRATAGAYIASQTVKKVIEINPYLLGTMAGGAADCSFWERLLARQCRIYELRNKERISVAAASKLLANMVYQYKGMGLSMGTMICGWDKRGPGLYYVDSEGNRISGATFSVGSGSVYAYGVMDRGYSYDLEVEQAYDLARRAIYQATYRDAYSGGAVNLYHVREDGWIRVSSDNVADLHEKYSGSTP
Experimental: RPMI 8226 cells (1 × 10^6 cells/mL) were collected, centrifuged, and washed twice with cold PBS (Gibco). The supernatant was discarded, and 200 μL of ice-cold lysis buffer (NP40 cell lysis buffer (Invitrogen, Eugene, OR, USA), supplemented with 1 mM PMSF (Sigma) and protease inhibitor cocktail (Sigma), was added to the pellet. Cells were kept on ice for 30 min and vortexed every 10 min. Samples were then centrifuged at 4 °C for 10 min at 16,000× g. Supernatant containing the proteins was collected. Protein quantification was performed using the Coomassie (Bradford) Protein Assay Kit (ThermoFisher, Waltham, MA, USA) following the manufacturer instructions. In each well of a 96-well black plate (ThermoFisher), 10 µg of proteins were mixed with assay buffer (50 mM Tris-HCl, pH 7.5, 40 mM KCl, 5 mM MgCl2, 0.5 mM ATP, 1 mM DTT, 0.5 mg/mL BSA) in 180 µL total volume. […] The plate was then incubated for 30 min at 37 °C. After incubation, the reaction was started by adding the fluorometric peptide substrate Suc-LLVY-amc (Bio-Techne, Minneapolis, MN, USA) at a final concentration of 100 µM, except for the blank wells. Following 1 h incubation at 37 °C in the dark, the fluorescence signal was red (excitation: 380 nm, emission: 440–460 nm) using a Cytation 3 plate reader (BioTek). The percentage of 26S proteasome activity was measured by comparing the fluorescence of the sample treated with the vehicle control wells and multiplied by 100. The IC50 value was calculated as mentioned above, and each compound was tested in triplicate in three independent experiments.

RPMI 8226 cells = assay: Antiproliferative assay (XTT, 72 h); format: cell-based, human; settings: for IC50: RPMI 8226 cells, 72 h, XTT, mean ± SD, n = 3
HDAC = HDAC inhibitory activity in RPMI 8226 cells (MAL substrate, UHPLC-MS); format: cell-based, human; settings: 8 h; for Inhibition of HDAC activity: 10 µM
Experimental: RPMI 8226 cells were seeded in 96-well plates (Costar) at a density of 15,000 cells per well in 25 µL of medium containing the HDAC substrate N-(4-methyl-7-aminocoumarinyl)-Nα-(t-butoxycarbonyl)-Nω-acetyllysineamide (21 µM, MAL, Sigma). The cells were directly treated with the compounds at 10 µM or with Ent (0.4–250 µM) for 8 h to obtain a final volume of 50 µL. […] Following the incubation, the reaction was stopped by adding 10 µL of 6X RIPA buffer, supplemented with protease inhibitor (Sigma). Then, 160 µL of cold acetonitrile were added and the plate was placed for 10 min at −80 °C. The plate was centrifuged at 5000× g for 10 min at 4 °C, and the supernatant was transferred into a UHPLC-adapted 96-well plate (Nunc 96-well plate conical bottom, ThermoFisher) and sealed. The substrate (MAL) and its deacetylated product (dMAL) were measured using a UHPLC-MS method as previously described. The percentage of HDAC inhibition is given by 100 − [(tested sample × 100/control sample)], and the dose-response curve of Ent was established.

RPMI 8226/BTZ100 cells = assay: cells; format: cell-based, human; settings: for IC50: read-out: IC50 Value Antiproliferative Activity RPMI 8226/BTZ100; for Increased resistance (RPMI 8226/BTZ100 vs. RPMI 8226): ratio of IC50 in resistant vs. parental cells
[1] = tested on: 3D co-culture spheroids containing RPMI 8226 cells and mesenchymal stem cells (MSC) in a 5:1 ratio; assay: Antiproliferative assay in 3D co-culture spheroids (CellTiter-Glo 3D, 48 h); format: cell-based, human; settings: RPMI 8226 + MSC 5:1 spheroids, mean ± SD, n = 3
Experimental: The multiple myeloma human plasma cells RPMI 8226 were purchased from American Type Culture Collection (ATCC, Manassas, VA, USA) and cultured in RPMI 1640 medium (Gibco, Paisley, UK) supplemented with 50 µg/mL streptomycin sulfate, 50 U/mL penicillin G sodium salt (Gibco, Grand Island, NY, USA) and 10% fetal bovine serum (FBS) (Biowest, Nuaillé, France). […] Human MSC from the bone marrow were purchased from PromoCell and were cultured in Mesenchymal Stem Cell Growth Medium 2 (PromoCell, Heidelberg, Germany) supplemented with 100 μg/mL streptomycin sulfate and 100 U/mL penicillin G sodium salt.
RPMI 8226 cells and MSC were mixed in a 5:1 ratio. The cell mixture was centrifuged, and medium containing 20% collagen I (Gibco) adjusted to pH 7 was added to the cell pellet. Five μL drops were plated in each well of an ice-cold 96-well ultra-low attachment U-bottom plate (Corning, Kennebunk, MA, USA) and the plate was incubated for 30 min at 37 °C and 5% CO2 atmosphere. After the incubation, 200 μL of RPMI 1640 medium (Gibco) supplemented with 50 µg/mL streptomycin sulfate, 50 U/mL penicillin G sodium salt (Gibco) and 10% FBS (Biowest) was added to each well. The 3D spheroids were formed after 48 h.
RPMI 8226 and RPMI 8226/BTZ100 cells were seeded in 96-well plates (Costar, Kennebunk, MA, USA) at a density of 15,000 cells per well and directly treated for 72 h with the various compounds using increasing concentrations (0.31–2000 nM). […] Following the treatment, 100 μL of medium was carefully removed from each well and collagenase (1.5 μL of a 100 mg/mL solution, Sigma) was added. The plate was shaken at 37 °C for 10 min at 350 rpm. Then, 100 μL of CellTiter-Glo 3D reagent (Promega, Fitchburg, WI, USA) was added to each well. The plate was incubated for 5 min at 37 °C under agitation at 250 rpm, followed by 25 min at room temperature without agitation. Finally, the luminescence was measured using a Cytation 3 plate reader (BioTek). The percentage of cell proliferation and calculation of the IC50 value were determined as previously described. Each compound was tested in triplicate in three independent experiments.

[2] = 26S proteasome in RPMI 8226 cell lysate, 30 min preincubation, Suc-LLVY-amc 100 µM, mean ± SD, n = 3; read-out: IC50 Value PI Activity
[3] = read-out: IC50 Value PI Activity; 26S proteasome in RPMI 8226 cell lysate, 30 min preincubation, Suc-LLVY-amc 100 µM, mean ± SD, n = 3
[4] = RPMI 8226 cells resistant to BTZ, 72 h, XTT, mean ± SD, n = 3

## CC(C)CC(NC(=O)C(Cc1ccccc1)NC(=O)CCC(=O)NCc1ccc(C(=O)Nc2ccccc2N)cc1)B1OC2CC3CC(C3(C)C)C2(C)O1 [Compound 1, N^1-(4-((2-aminophenyl)carbamoyl)benzyl)-N^4-((2R)-1-(((1R)-3-methyl-1-((3aR)-3a,5,5-trimethylhexahydro-4,6-methanobenzo[d][1,3,2]dioxaborol-2-yl)butyl)amino)-1-oxo-3-phenylpropan-2-yl)succinimide]
26S proteasome; [2]
  IC50: 10.3 ± 2.7 nM
RPMI 8226 cells; Homo sapiens
  IC50: 678 ± 42.5 nM

## CC(C)C[C@H](NC(=O)[C@@H](Cc1ccccc1)NC(=O)c1ccc(C(=O)Nc2ccccc2N)cc1)B1OC2CC3CC(C3(C)C)[C@]2(C)O1 (stereo partly drawn) [Compound 2, N^1-(2-aminophenyl)-N^4-((2R)-1-(((1R)-3-methyl-1-((3aS)-3a,5,5-trimethylhexahydro-4,6-methanobenzo[d][1,3,2]dioxaborol-2-yl)butyl)amino)-1-oxo-3-phenylpropan-2-yl)terephthalamide]
HDAC
  Inhibition of HDAC activity: 50%
26S proteasome; [2]
  IC50: 9.5 ± 2.3 nM
RPMI 8226 cells; Homo sapiens
  IC50: 37.1 ± 2.9 nM
RPMI 8226 cells; compared to compound 3
  Fold less active than compound 3 in RPMI 8226 cells: ca. 4 times
RPMI 8226/BTZ100 cells; Homo sapiens, RPMI-8226, 72 h
  IC50: 112 ± 13 nM
RPMI 8226/BTZ100 cells
  Increased resistance (RPMI 8226/BTZ100 vs. RPMI 8226): 3.0 fold
[1]; Homo sapiens
  IC50: 32.5 ± 7.5 nM

## CC(C)C[C@H](NC(=O)[C@@H](Cc1ccccc1)NC(=O)c1cnc(C(=O)Nc2ccccc2N)cn1)B1OC2CC3CC(C3(C)C)[C@]2(C)O1 (stereo partly drawn) [Compound 3, N^2-(2-aminophenyl)-N^5-((2R)-1-(((1R)-3-methyl-1-((3aS)-3a,5,5-trimethylhexahydro-4,6-methanobenzo[d][1,3,2]dioxaborol-2-yl)butyl)amino)-1-oxo-3-phenylpropan-2-yl)pyrazine-2,5-dicarboxamide]
HDAC
  Inhibition of HDAC activity: 33%
26S proteasome; [2]
  IC50: 27.2 ± 6.2 nM
RPMI 8226 cells; Homo sapiens
  IC50: 9.5 ± 1.4 nM
RPMI 8226/BTZ100 cells; Homo sapiens, RPMI-8226, 72 h
  IC50: 158 ± 15.8 nM
RPMI 8226/BTZ100 cells
  Increased resistance (RPMI 8226/BTZ100 vs. RPMI 8226): 16.6 fold
[1]; Homo sapiens
  IC50: 13.1 ± 6.9 nM

## CC(C)C[C@H](NC(=O)[C@@H](Cc1ccccc1)NC(=O)c1ccc(C(=O)NCc2ccc(C(=O)Nc3ccccc3N)cc2)cc1)B1OC2CC3CC(C3(C)C)[C@@]2(C)O1 (stereo partly drawn) [Compound 4, N^1-(4-((2-aminophenyl)carbamoyl)benzyl)-N^4-((2R)-1-(((1R)-3-methyl-1-((3aR)-3a,5,5-trimethylhexahydro-4,6-methanobenzo[d][1,3,2]dioxaborol-2-yl)butyl)amino)-1-oxo-3-phenylpropan-2-yl)terephthalamide]
26S proteasome; [2]
  IC50: > 50 nM
RPMI 8226 cells; Homo sapiens
  IC50: 802 ± 72.7 nM

## CC(C)C[C@H](NC(=O)[C@@H](Cc1ccccc1)NC(=O)c1cnc(C(=O)NCc2ccc(C(=O)Nc3ccccc3N)cc2)cn1)B1OC2CC3CC(C3(C)C)[C@@]2(C)O1 (stereo partly drawn) [Compound 5, N^2-(4-((2-aminophenyl)carbamoyl)benzyl)-N^5-((2R)-1-(((1R)-3-methyl-1-((3aR)-3a,5,5-trimethylhexahydro-4,6-methanobenzo[d][1,3,2]dioxaborol-2-yl)butyl)amino)-1-oxo-3-phenylpropan-2-yl)pyrazine-2,5-dicarboxamide]
26S proteasome; [2]
  IC50: 14.8 ± 2.5 nM
RPMI 8226 cells; Homo sapiens
  IC50: 25.2 ± 2.2 nM
RPMI 8226/BTZ100 cells; Homo sapiens, RPMI-8226, 72 h
  IC50: 203 ± 36.1 nM
RPMI 8226/BTZ100 cells
  Increased resistance (RPMI 8226/BTZ100 vs. RPMI 8226): 8.0 fold
[1]; Homo sapiens
  IC50: 65.1 ± 14.1 nM

## CC(C)C[C@H](NC(=O)[C@@H](Cc1ccccc1)NC(=O)Cc1ccc(C(=O)Nc2ccccc2N)cc1)B1OC2CC3CC(C3(C)C)[C@@]2(C)O1 (stereo partly drawn) [Compound 6, N-(2-aminophenyl)-4-(2-(((2R)-1-(((1R)-3-methyl-1-((3aR)-3a,5,5-trimethylhexahydro-4,6-methanobenzo[d][1,3,2]dioxaborol-2-yl)butyl)amino)-1-oxo-3-phenylpropan-2-yl)amino)-2-oxoethyl)benzamide]
26S proteasome; [2]
  IC50: > 50 nM
RPMI 8226 cells; Homo sapiens
  IC50: 337 ± 49.4 nM

## CC(C)C[C@H](NC(=O)[C@@H](Cc1ccc(N(CCCl)CCCl)cc1)NC(=O)c1cnccn1)B1OC2CC3CC(C3(C)C)[C@]2(C)O1 (stereo partly drawn) [Compound 8, N-((2R)-3-(4-(bis(2-chloroethyl)amino)phenyl)-1-(((1R)-3-methyl-1-((3aS)-3a,5,5-trimethylhexahydro-4,6-methanobenzo[d][1,3,2]dioxaborol-2-yl)butyl)amino)-1-oxopropan-2-yl)pyrazine-2-carboxamide]
26S proteasome; [3]
  IC50: 12.1 ± 1.1 nM
RPMI 8226 cells
  IC50: 19.6 ± 0.4 nM
RPMI 8226/BTZ100 cells; [4]
  IC50: 1010 ± 88.6 nM
[1]
  IC50: 30 ± 1.6 nM

## CC(C)C[C@H](NC(=O)[C@@H](Cc1ccc(N(CCCl)CCCl)cc1)NC(=O)c1cnc(Cl)cn1)B1OC2CC3CC(C3(C)C)[C@]2(C)O1 (stereo partly drawn) [Compound 9, N-((2R)-3-(4-(bis(2-chloroethyl)amino)phenyl)-1-(((1R)-3-methyl-1-((3aS)-3a,5,5-trimethylhexahydro-4,6-methanobenzo[d][1,3,2]dioxaborol-2-yl)butyl)amino)-1-oxopropan-2-yl)-5-chloropyrazine-2-carboxamide]
26S proteasome; [3]
  IC50: > 50 nM
RPMI 8226 cells
  IC50: 37.6 ± 1.1 nM
RPMI 8226/BTZ100 cells; [4]
  IC50: 1030 ± 205 nM
[1]
  IC50: 188 ± 42.5 nM

## CC(C)C[C@H](NC(=O)c1cnc(C(=O)Nc2ccccc2N)cn1)B1OC2CC3CC(C3(C)C)[C@]2(C)O1 (stereo partly drawn) [Compound 10, N^2-(2-aminophenyl)-N^5-((1R)-3-methyl-1-((3aS)-3a,5,5-trimethylhexahydro-4,6-methanobenzo[d][1,3,2]dioxaborol-2-yl)butyl)pyrazine-2,5-dicarboxamide]
26S proteasome; [2]
  IC50: > 50 nM
RPMI 8226 cells; Homo sapiens
  IC50: > 2000 nM

## Nc1ccccc1NC(=O)c1ccc(CNC(=O)OCc2cccnc2)cc1 [Ent, entinostat]
HDAC
  Inhibition of HDAC activity: 51%
HDAC; 0.4–250 µM, read-out: HDAC inhibition IC50
  IC50: 9300 ± 700 nM
RPMI 8226 cells; Homo sapiens
  IC50: 329 ± 25.7 nM
RPMI 8226/BTZ100 cells; Homo sapiens, RPMI-8226, 72 h
  IC50: 562 ± 51.7 nM
[1]; Homo sapiens
  IC50: 349 ± 133 nM
